Series [1] is described as follows: Human Caco-2 bidirectional permeability A to B and B to A. The conditions noted are these: for Papp at 2 h: Caco-2, 2 hours, pH 7.4; for efflux ratio at 2 h: Caco-2, pH 7.4. The series is classed as in vitro ADME. For orientation: Caco-2 monolayers are a common model of the intestinal barrier.
A short description of series [2]: Human plasma protein binding (equilibrium dialysis). It counts as in vitro ADME. The conditions noted are these: dialysis 18 hours. Summed up: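 Fraction unbound (fu %) in human plasma, from LC/MSMS of plasma and buffer sides (7-point plasma calibration) after 18 h rapid equilibrium dialysis. Single determinations, with compounds pooled up to 10 per plasma pool.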

A short description of series [3]: Thermodynamic solubility (shake-flask). The series is classed as physicochemical. The settings on record: aqueous phosphate buffer, 25 °C, pH 7.4, aqueous buffer, thermodynamic from solid, aqueous phosphate buffer pH 7.4, 24 hours. Summed up: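 Shake-flask method starting from 10 mM DMSO stocks, which are dried before use. Residue equilibrated 24 h at 25° C. in aqueous phosphate buffer, pH 7.4. Dissolved fraction separated and quantified by UPLC/MS/MS, with QC samples in each run.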

A short description of series [4]: log D (shake flask, 1-octanol/aqueous buffer). The series is classed as physicochemical. Summed up:
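Distribution between 1-octanol and aqueous buffer at pH 7.4 was measured by shake flask, with compounds run in mixtures of ten. Relative concentrations in each phase were quantified by UPLC with quantitative MS. Caffeine served as a low-log D QC sample in all runs.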

Series [5] concerns the target estrogen receptor (ERα) in CAMA-1 cells (Homo sapiens (Human), UniProt P03372). Kind of series: Western blotting assay, ER down-regulation in CAMA-1. The series is classed as cell-based. The settings on record: 100 nM compound, 48 h, normalised to 100 nM fulvestrant. Here is the method: (§1) Cells were incubated with compounds (100 nM) or vehicle control (0.1% DMSO) for 48 h at 37° C., 5% CO2 before washing once with PBS and lysing with 80 μl lysis buffer (25 mM Tris/HCl, 3 mM EDTA, 3 mM EGTA, 50 mM NaF, 2 mM sodium orthovanadate, 0.27 M sucrose, 10 mM β-glycerophosphate, 5 mM sodium pyrophosphate, 0.5% TritonX-100, pH 6.8) on ice.
(§2) Samples were boiled for 10 min at 95° C. and then frozen at −20° C. until ready for use.
(§3) The blot was stained with Ponceau S (P7170, Sigma) and cut according to appropriate molecular weight markers.
(§4) Membranes were blocked for 1 hour at room temp in 5% Marvel (w/v) in phosphate-buffered saline containing 0.05% Tween™ 20 (PBS/Tween). Blots were then incubated with anti-ERα (SP1) rabbit monoclonal antibody (Thermofisher) diluted 1:1000 at 4° C. overnight (with gentle shaking) followed by several washes with PBS/Tween. […] All antibodies were made up in 5% Marvel (w/v) in PBS/Tween.
(§5) Down-regulation of the ERα receptor was normalised to the vehicle control (0% down-regulation) and the 100 nM fulvestrant control (100% down-regulation) run within the same gel.

Series [6] has as its target recombinant human Estrogen Receptor alpha ligand binding domain (ER alpha-LBD (GST)) (Homo sapiens (Human), UniProt P03372). Briefly: ERα binding assay (LanthaScreen TR-FRET competition). The conditions noted are these: TR-FRET, displacement of Fluormone ES2. Summed up:
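Competition binding to GST-tagged human ERα ligand-binding domain, read by LanthaScreen TR-FRET: Tb-anti-GST antibody labels the receptor and compounds displace a fluorescent tracer, lowering the signal. IC50 was taken from dose-response curve fitting.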
On the technique in general: Time-resolved FRET reads energy transfer from a long-lived donor to a nearby acceptor.

Series [7] deals with T1, Estrogen Receptor (ERα) in MCF-7 cells (Homo sapiens (Human), UniProt P03372). Briefly: MCF-7 ER down-regulation assay (immuno-fluorescence). The series is classed as cell-based. Summed up: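 Compounds dispensed acoustically from DMSO stocks onto MCF-7 cells; cells fixed 20 min at room temperature, then automated immunostaining for ERα with overnight incubation at 4° C. Read-out is mean total ER fluorescence intensity normalized to cell number (intensity per cell), with curve fitting for concentration-response values.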

Series [8] addresses T1, Estrogen Receptor (ERα) in MCF-7 cells. Kind of series: Western blotting assay, ER down-regulation in MCF-7. It counts as cell-based. The settings on record: 100 nM compound, 48 h, normalised to 100 nM fulvestrant. Here is the method: as §1, §2, §3, §4, §5
Setting [9] is: 1-octanol/aqueous buffer, pH 7.4, pH 7.4, 1-octanol/aqueous buffer.

Values after ≈ are worked out from the molar mass of the structure shown.

Chain of recombinant human Estrogen Receptor alpha ligand binding domain (ER alpha-LBD (GST)) (P03372 307-554): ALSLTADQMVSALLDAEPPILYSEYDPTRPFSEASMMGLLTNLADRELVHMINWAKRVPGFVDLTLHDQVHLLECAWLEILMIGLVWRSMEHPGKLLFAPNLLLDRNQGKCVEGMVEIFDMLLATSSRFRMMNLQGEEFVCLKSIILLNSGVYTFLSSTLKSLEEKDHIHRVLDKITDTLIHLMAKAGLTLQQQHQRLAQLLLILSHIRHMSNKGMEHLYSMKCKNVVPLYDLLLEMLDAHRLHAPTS
T1 sequence (P03372 whole entry): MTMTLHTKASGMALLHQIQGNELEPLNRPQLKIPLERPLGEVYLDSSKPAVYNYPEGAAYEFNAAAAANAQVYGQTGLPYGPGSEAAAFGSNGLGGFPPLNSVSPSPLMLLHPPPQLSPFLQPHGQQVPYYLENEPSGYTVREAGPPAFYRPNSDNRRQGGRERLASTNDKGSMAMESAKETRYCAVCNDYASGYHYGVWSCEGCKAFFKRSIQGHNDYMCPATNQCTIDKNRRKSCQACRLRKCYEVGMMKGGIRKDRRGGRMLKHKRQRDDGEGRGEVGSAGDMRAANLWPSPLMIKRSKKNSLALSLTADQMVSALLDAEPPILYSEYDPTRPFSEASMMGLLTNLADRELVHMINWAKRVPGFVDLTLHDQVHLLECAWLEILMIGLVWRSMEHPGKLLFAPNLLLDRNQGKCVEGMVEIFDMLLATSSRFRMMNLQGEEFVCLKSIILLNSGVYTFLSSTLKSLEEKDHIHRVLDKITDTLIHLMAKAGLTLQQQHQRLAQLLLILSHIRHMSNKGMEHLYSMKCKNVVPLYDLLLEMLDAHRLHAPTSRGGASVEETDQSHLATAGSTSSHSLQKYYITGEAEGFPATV
Chain of estrogen receptor (ERα) in CAMA-1 cells (P03372 whole entry): as above

The term Papp denotes a coefficient for how fast a substance crosses the barrier. The low end stands for slow passage, the high end for fast passage. One may read the efflux ratio as a quotient of directional permeabilities that is used to spot active efflux. Usually solubility stands for how much of the substance goes into solution per volume. Read a low solubility as a poorly soluble substance. Broadly, the logD is lipophilicity at a set pH, counting ionised and neutral species. Read a low logD as a more hydrophilic compound. One may read the IC50 as the midpoint of a concentration-inhibition curve. In the case of `C[C@@H]1Cc2c(ccc3[nH]nc(F)c23)[C@@H](c2ncc(NC3CN(CCCF)C3)cc2F)N1CC(F)(F)F` [Example 33, 5-Fluoro-6-((6S,8R)-1-fluoro-8-methyl-7-(2,2,2-trifluoroethyl)-6,7,8,9-tetrahydro-3H-pyrazolo[4,3-f]isoquinolin-6-yl)-N-(1-(3-fluoropropyl)azetidin-3-yl)pyridin-3-amine], in series [1], the Papp at 2 h was determined as 2.6 ×10⁻⁶ cm/s and the efflux ratio at 2 h was determined as 1.5. Further, in series [2], the “Human plasma protein binding (% free)” value is recorded as 5.4 % free. Moreover, in series [3], the solubility at 24 h turned out to be 466 µM (≈ 239 µg/mL). The same molecule came in with a logD in series [4] (pH 7.4, 1-octanol/aqueous buffer) of 3.6. In addition, in series [5], the “CAMA1 Western % ER deg vs Fv” value is 102%. In addition, the IC50 in series [6] is 1.4 nM. The IC50 in series [7] was 0.1 nM. Further, the “MCF7 Western % ER deg vs Fv” value in series [8] turned out to be 98%.

As to `C[C@@H]1Cc2c(ccc3[nH]ncc23)[C@@H](c2ccc(NC3CN(CCCF)C3)cc2)N1CC(F)(F)F` [Example 27, 1-(3-Fluoropropyl)-N-(4-((6R,8R)-8-methyl-7-(2,2,2-trifluoroethyl)-6,7,8,9-tetrahydro-3H-pyrazolo[4,3-f]isoquinolin-6-yl)phenyl)azetidin-3-amine], in series [1], the apparent permeability (Papp) at 2 h was 5.4 ×10⁻⁶ cm/s and the efflux ratio at 2 h stood at 0.9. Moreover, the “Human plasma protein binding (% free)” value in series [2] was found to be 3.8 % free. In series [3], this molecule showed a solubility at 24 h of 229 µM (≈ 109 µg/mL). The same molecule yielded a logD in series [4] (setting [9]) of 3.8. Also, the “CAMA1 Western % ER deg vs Fv” value in series [5] stood at 108%. The IC50 in series [6] stood at 0.81 nM. For the same molecule, in series [7], the IC50 was 0.05 nM. In addition, in series [8], the “MCF7 Western % ER deg vs Fv” value turned out to be 110%.

For the molecule `C[C@@H]1Cc2c(ccc3[nH]ncc23)[C@@H](c2ccc(NC3CN(CCCF)C3)cn2)N1CC(F)(F)F` [Example 17, N-(1-(3-fluoropropyl)azetidin-3-yl)-6-((6S,8R)-8-methyl-7-(2,2,2-trifluoroethyl)-6,7,8,9-tetrahydro-3H-pyrazolo[4,3-f]isoquinolin-6-yl)pyridin-3-amine], the Papp at 2 h in series [1] is 4.7 ×10⁻⁶ cm/s. For the same molecule, the “Human plasma protein binding (% free)” value in series [2] turned out to be 23 % free. This molecule also registered a solubility at 24 h in series [3] of 833 µM (≈ 397 µg/mL). Further, the logD in series [4] (setting [9]) stood at 2.9. In addition, the “CAMA1 Western % ER deg vs Fv” value in series [5] turned out to be 96%. Moreover, the “MCF7 Western % ER deg vs Fv” value in series [8] is on record as 92%.

As to `C[C@@H]1Cc2c(ccc3[nH]ncc23)[C@@H](c2ncc(NC3CN(CCCF)C3)cc2F)N1CC1(F)CC1` [Example 18, 5-fluoro-6-((6S,8R)-7-((1-fluorocyclopropyl)methyl)-8-methyl-6,7,8,9-tetrahydro-3H-pyrazolo[4,3-f]isoquinolin-6-yl)-N-(1-(3-fluoropropyl)azetidin-3-yl)pyridin-3-amine], the “Human plasma protein binding (% free)” value in series [2] amounted to 34 % free. Moreover, in series [3], the solubility at 24 h was determined as 910 µM (≈ 441 µg/mL). This molecule had a logD in series [4] (setting [9]) of 2.6. Besides, the “CAMA1 Western % ER deg vs Fv” value in series [5] came to 95%. The IC50 in series [6] came to 29 nM; in series [7], 0.42 nM. Also, the “MCF7 Western % ER deg vs Fv” value in series [8] came out at 103%.

Turning to `C[C@@H]1Cc2c(ccc3[nH]ncc23)[C@@H](c2ccc(NC3CN(CCCF)C3)cc2)N1CC(F)F` [Example 48, N-(4-((6R,8R)-7-(2,2-difluoroethyl)-8-methyl-6,7,8,9-tetrahydro-3H-pyrazolo[4,3-f]isoquinolin-6-yl)phenyl)-1-(3-fluoropropyl)azetidin-3-amine], in series [2], the “Human plasma protein binding (% free)” value was determined as 10 % free. The same molecule displayed a solubility at 24 h in series [3] of 582 µM (≈ 266 µg/mL). The logD in series [4] (setting [9]) came to 3.1. Moreover, the “CAMA1 Western % ER deg vs Fv” value in series [5] worked out at 94%. The IC50 in series [6] came out at 1.5 nM; in series [7], 0.078 nM. The “MCF7 Western % ER deg vs Fv” value in series [8] was 93%.

These data come from patent publication US10131663B2, “Chemical compounds” (AstraZeneca AB, priority 2016, dated 2018).
